Measured values published in ChEMBL document CHEMBL2040733, “Doing the methylene shuffle--further insights into the inhibition of mitotic kinesin Eg5 with S-trityl L-cysteine” (Eur J Med Chem, 2012).
In brackets after ≈: the same amount, converted by molar mass.

Columns and labels:
K562 = assay: Cytotoxicity against human K562 cells after 72 hrs by Alamar blue assay; assay type: functional; settings: K562, 72 h
HCT-116 = assay: Cytotoxicity against human HCT116 cells after 72 hrs by Alamar blue assay; assay type: functional; settings: HCT-116, 72 h
NCI-H1299 = assay: Cytotoxicity against human NCI-H1299 cells after 72 hrs by Alamar blue assay; assay type: functional; settings: NCI-H1299, 72 h
BXPC-3 = assay: Cytotoxicity against human BxPC3 cells after 72 hrs by Alamar blue assay; assay type: functional; settings: BXPC-3, 72 h
[1] = Solubility of the compound in phosphate buffered saline at pH 7.4 after 2 hrs by turbidimetric analysis; assay type: physicochemical
[2] = Cytotoxicity against wild type human KB-3-1 cells; assay type: functional
[3] = Cytotoxicity against human KBV1 cells expressing p-glycoprotein; assay type: functional; settings: KB-V1
KB-V1 = assay: Multidrug resistant ratio of GI50 for human KBV1 cells expressing p-glycoprotein to GI50 for wild type human KB-3-1 cells; assay type: functional
[4] = target: T1, Kinesin-like protein KIF11 (Homo sapiens, UniProt P52732)
T1 sequence (P52732 whole entry): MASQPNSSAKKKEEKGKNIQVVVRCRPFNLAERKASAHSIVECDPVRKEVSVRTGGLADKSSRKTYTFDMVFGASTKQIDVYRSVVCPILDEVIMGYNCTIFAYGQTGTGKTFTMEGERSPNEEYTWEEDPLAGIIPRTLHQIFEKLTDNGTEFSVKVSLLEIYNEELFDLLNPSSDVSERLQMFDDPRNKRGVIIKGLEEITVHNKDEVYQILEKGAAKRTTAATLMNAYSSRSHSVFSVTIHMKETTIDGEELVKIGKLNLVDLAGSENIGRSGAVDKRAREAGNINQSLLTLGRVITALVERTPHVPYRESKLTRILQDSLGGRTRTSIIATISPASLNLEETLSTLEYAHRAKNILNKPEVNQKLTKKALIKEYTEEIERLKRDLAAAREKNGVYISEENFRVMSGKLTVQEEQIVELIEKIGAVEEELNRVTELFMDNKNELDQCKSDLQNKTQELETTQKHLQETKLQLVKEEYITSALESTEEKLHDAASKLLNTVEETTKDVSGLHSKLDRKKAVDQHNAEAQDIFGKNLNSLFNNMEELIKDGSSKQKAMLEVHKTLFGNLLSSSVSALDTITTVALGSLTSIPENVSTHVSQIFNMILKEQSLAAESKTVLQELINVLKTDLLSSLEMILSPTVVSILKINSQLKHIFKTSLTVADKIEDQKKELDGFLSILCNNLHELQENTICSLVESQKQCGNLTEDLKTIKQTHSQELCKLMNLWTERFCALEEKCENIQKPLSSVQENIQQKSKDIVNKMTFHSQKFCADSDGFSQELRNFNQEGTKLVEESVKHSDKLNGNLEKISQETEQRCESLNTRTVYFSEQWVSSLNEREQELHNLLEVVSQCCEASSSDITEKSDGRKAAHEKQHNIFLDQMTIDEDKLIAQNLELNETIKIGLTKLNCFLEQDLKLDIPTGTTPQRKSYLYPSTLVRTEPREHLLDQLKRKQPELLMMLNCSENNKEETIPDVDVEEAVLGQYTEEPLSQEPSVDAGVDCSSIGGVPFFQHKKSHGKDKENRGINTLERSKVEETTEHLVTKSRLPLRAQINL
Description: Inhibition of basal ATPase activity of Eg5 by coupled pyruvate kinase/lactate dehydrogenase assay

Row | Structure (SMILES) | IC50 [4] [µM] | GI50 (K562) [µM] | other results
1 | Cc1ccc(C(Cc2ccccc2)(SC[C@H](N)C(=O)O)c2ccccc2)cc1 (mixture of isomers) | 0.168 | 1.44 | GI50 (HCT-116): 1.49 µM; GI50 (NCI-H1299): 2.43 µM; GI50 (BXPC-3): 4.33 µM; solubility kinetic at 2 h [1]: 11.5 µM; GI50 [2]: 2.44 µM; GI50 [3]: > 50 µM; RatioGI50 (KB-V1): >20
2 | N[C@@H](CSC(Cc1ccccc1)(c1ccccc1)c1cccc(O)c1)C(=O)O (mixture of isomers) | 0.0676 | 17.7 | 
3 | NCCSC(Cc1ccccc1)(c1ccccc1)c1ccccc1F (racemic) | 0.79 |  | 
4 | N[C@@H](CSC(Cc1ccccc1)(c1ccccc1)c1ccccc1)C(=O)O | 0.138 | 3.14 | GI50 (HCT-116): 2.37 µM; GI50 (NCI-H1299): 6.87 µM; GI50 (BXPC-3): 14.3 µM; solubility kinetic at 2 h [1]: > 100 µM; GI50 [2]: 5.33 µM; GI50 [3]: > 50 µM; RatioGI50 (KB-V1): >10
5 | NCCSC(c1ccccc1)(c1ccccc1)c1ccncc1 | 0.942 |  | 
6 | NCCSC(Cc1ccccc1)(c1ccccc1)c1cccc(O)c1 (racemic) | 0.256 | 2.73 | 
7 | N[C@@H](CSC(Cc1ccccc1)(c1ccccc1)c1ccc(Cl)cc1)C(=O)O (mixture of isomers) | 0.0586 | 2.47 | GI50 (HCT-116): 2.08 µM; GI50 (NCI-H1299): 3.63 µM; GI50 (BXPC-3): 3.79 µM; GI50 [2]: 4.89 µM; GI50 [3]: > 50 µM; RatioGI50 (KB-V1): >10
8 | Cc1ccc(C(Cc2ccccc2)(SC[C@H](N)C(=O)O)c2ccc(C)cc2)cc1 | 0.106 | 2.79 | 
9 | NCCSC(Cc1ccccc1)(c1ccc(Cl)cc1)c1ccc(Cl)cc1 | 0.404 |  | 
10 | Cc1ccc(C(Cc2ccccc2)(SCCN)c2ccccc2)cc1 (racemic) | 0.172 | 2.39 | GI50 (HCT-116): 1.17 µM; GI50 (NCI-H1299): 2.5 µM; GI50 (BXPC-3): 4.07 µM; solubility kinetic at 2 h [1]: 6.5 µM (≈ 2.26 µg/mL); GI50 [2]: 1.88 µM; GI50 [3]: 1.72 µM; RatioGI50 (KB-V1): 1
11 | N[C@@H](CSC(Cc1ccccc1)(c1ccccc1)c1cccc(Cl)c1)C(=O)O (mixture of isomers) | 0.129 | 4.54 | 
12 | NCCSC(Cc1ccccc1)(c1ccccc1)c1ccc(Cl)cc1 (racemic) | 0.141 | 3.72 | GI50 (HCT-116): 2.05 µM; GI50 (NCI-H1299): 6.79 µM; GI50 (BXPC-3): 4.26 µM; GI50 [2]: 5.55 µM; GI50 [3]: 5.78 µM; RatioGI50 (KB-V1): 1
13 | NCCSC(C(=O)c1ccccc1)(c1ccccc1)c1ccccc1 | > 50 |  | 
14 | NCCSC(c1ccccc1)(c1ccccc1)c1ccccc1 | 0.241 |  | 
15 | NCCSC(Cc1ccccc1)(c1ccc(Cl)cc1)c1cccc(Cl)c1 (racemic) | 0.437 |  | 
16 | N[C@@H](CSC(Cc1ccccc1)(c1ccccc1)c1ccc(F)cc1)C(=O)O (mixture of isomers) | 0.151 | 6.09 | 
17 | N[C@@H](CSC(Cc1ccccc1)(c1ccccc1)c1ccc(O)cc1)C(=O)O (mixture of isomers) | 0.159 | 18.2 | 
18 | N[C@@H](CSC(Cc1ccccc1)(c1ccc(F)cc1)c1ccc(F)cc1)C(=O)O (mixture of isomers) | 0.178 | 5.12 | 
19 | NCCSC(Cc1ccccc1)(c1ccc(F)cc1)c1ccc(F)cc1 | 0.588 |  | 
20 | Cc1ccc(C(Cc2ccccc2)(SCCN)c2ccc(C)cc2)cc1 | 0.261 |  | 

More lines, main results first:

Row | IC50 [4] [µM] | Structure (SMILES) | GI50 (K562) [µM] | other results
21 | 0.684 | NCCSC(Cc1ccccc1)(c1ccccc1)c1ccccc1 |  | solubility kinetic at 2 h [1]: > 100 µM
22 | 0.514 | N[C@@H](CSC(c1ccccc1)(c1ccccc1)c1ccncc1)C(=O)O |  | 
23 | 0.229 | NCCSC(Cc1ccccc1)(c1ccccc1)c1ccc(Cl)c(Cl)c1 (racemic) |  | 
24 | 0.252 | N[C@@H](CSC(Cc1ccccc1)(c1ccc(Cl)cc1)c1ccc(Cl)cc1)C(=O)O |  | 
25 | 0.666 | NCCSC(Cc1ccccc1)(c1ccccc1)c1ccc(O)cc1 (racemic) |  | 
26 | 0.519 | NCCSC(Cc1ccccc1)(c1ccccc1)c1cccc(Cl)c1 (racemic) |  | 
27 | 0.456 | N[C@@H](CSC(Cc1ccc(Cl)cc1)(c1ccccc1)c1ccccc1)C(=O)O |  | 
28 | 0.191 | N[C@@H](CSC(Cc1ccccc1)(c1ccccc1)c1ccc(Cl)c(Cl)c1)C(=O)O (mixture of isomers) |  | 
29 | 0.578 | NCCSC(Cc1ccccc1)(c1ccccc1)c1ccc(F)cc1 (racemic) |  | 
30 | 0.568 | N[C@@H](CSC(Cc1ccccc1)(c1ccc(Cl)cc1)c1cccc(Cl)c1)C(=O)O (mixture of isomers) |  | 
31 | 0.238 | N[C@@H](CSC(Cc1cccc(Cl)c1)(c1ccccc1)c1ccccc1)C(=O)O |  | 
32 | 5.28 | N[C@@H](CSC(Cc1ccc(Cl)c(Cl)c1)(c1ccccc1)c1ccccc1)C(=O)O |  | 
33 | 0.217 | N[C@@H](CSC(Cc1ccccc1)(c1ccccc1)c1ccccc1F)C(=O)O (mixture of isomers) |  | 
34 | 15.8 | N[C@@H](CSC(CCc1ccccc1)(c1ccccc1)c1ccccc1)C(=O)O |  | 
35 | > 150 | N[C@@H](CSC(C(=O)c1ccccc1)(c1ccccc1)c1ccccc1)C(=O)O |  | 
